Where “and” joins values, the source holds several entries; their conditions need not be identical. Identical values can stand only once.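 Each compound was tested at five concentrations against cells in 96-well plates for 48 hours. The concentration for 50% growth inhibition is given as GI50. TGI denotes the concentration required for complete inhibition of growth.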
Assays:
Experiment in all cases: growth of human tumour cells (NCI), 48 h
BT-549 breast = system: BT-549 breast
EKVX NSCLC = system: EKVX NSCLC
HCT-15 colon = system: HCT-15 colon
M14 melanoma = system: M14 melanoma
MCF7 breast = system: MCF7 breast
MDA-MB-231 breast = system: MDA-MB-231 breast
MDA-N = system: MDA-N
MOLT-4 leukemia = system: MOLT-4 leukemia
NCI-H23 lung = system: NCI-H23 lung
NCI-H460 lung = system: NCI-H460 lung
NCI-H522 lung = system: NCI-H522 lung
OVCAR-3 ovarian = system: OVCAR-3 ovarian
OVCAR-4 ovarian = system: OVCAR-4 ovarian
RXF 393 renal = system: RXF 393 renal
SW-620 colon = system: SW-620 colon

| SMILES | TGI (BT-549 breast) [µM] | TGI (EKVX NSCLC) | TGI (HCT-15 colon) | TGI (M14 melanoma) | TGI (MCF7 breast) [µM] | TGI (MDA-MB-231 breast) [µM] | TGI (MDA-N) [µM] | TGI (MOLT-4 leukemia) [µM] | TGI (NCI-H23 lung) [µM] | TGI (NCI-H460 lung) [µM] | TGI (NCI-H522 lung) [µM] | TGI (OVCAR-3 ovarian) | TGI (OVCAR-4 ovarian) | TGI (RXF 393 renal) | TGI (SW-620 colon) | GI50 (EKVX NSCLC) [µM] | GI50 (OVCAR-3 ovarian) [µM] | GI50 (OVCAR-4 ovarian) [µM] |
| --- | --- | --- | --- | --- | --- | --- | --- | --- | --- | --- | --- | --- | --- | --- | --- | --- | --- | --- |
| COc1ccc2c(c1)CC[C@@H]1[C@@H]2CC[C@]2(C)/C(=N/OCCN3CCCC3)CC[C@@H]12 | 22.4 | 12.3 µM | 2.65 µM | 2.64 µM | 8.92 | 8.92 | 3.98 | 4.85 | 19.5 | 3.08 | 11.5 | 16.2 µM | 24.3 µM | 4.16 µM | 3.68 µM | – | – | – |
| N/C(=N\N=C\c1cc2ccccc2s1)c1cnccn1 | > 100 | > 100 µM | > 100 µM | > 100 µM | > 100 | > 100 | > 100 | – | > 100 | > 100 | > 100 | > 100 µM | > 100 µM | > 100 µM | > 100 µM | – | – | – |
| CN1C(=O)N(C)C2(CCN(CC(CC3OCCO3)c3ccc(F)cc3)CC2)C1=O (centres undefined) | > 100 | > 100 µM | > 100 µM | > 100 µM | > 100 | > 100 | > 100 | > 100 | > 100 | – | > 100 | > 100 µM | > 100 µM | > 100 µM | – | – | – | – |
| O=[N+]([O-])c1ccc(CSc2nn(Cc3ccc([N+](=O)[O-])cc3)cc3ncnc2-3)cc1 | 84.8 | > 100 µM | > 100 µM | > 100 µM | > 100 | > 100 | > 100 | > 100 | > 100 | – | 67.8 | > 100 µM | > 100 µM | – | > 100 µM | – | – | – |
| CCN(CC)CCNc1c2ccccc2nc2cccc([N+](=O)[O-])c12 | 0.0187 | 0.0298 µM and 0.08 µM | 0.0205 µM and 0.0398 µM | 0.0188 µM and 0.0245 µM | 0.0063 | 0.00487 | 0.00373 | 0.124 | 0.0188 | 0.0186 | 0.0132 | 0.0241 µM and 0.0621 µM | 0.0289 µM and 0.178 µM | 0.0351 µM and 0.0112 µM | 0.0395 µM and 0.172 µM | 0.029 | 0.0244 | 0.0279 |
| CN1C(=O)c2ccccc2C(O)(c2ccccc2)C1(O)c1ccccc1 (centres undefined) | > 100 | > 100 µM | > 100 µM | > 100 µM | – | > 100 | > 100 | > 100 | > 100 | > 100 | > 100 | > 100 µM | > 100 µM | > 100 µM | > 100 µM | – | – | – |
| Clc1ccc(Nc2ncco2)cc1Cl | > 10 | > 10 µM | > 10 µM | > 10 µM | > 10 | > 10 | > 10 | > 10 | > 10 | > 10 | > 10 | > 10 µM | > 10 µM | – | > 10 µM | – | – | – |
| O=[N+]([O-])c1cc(Br)cc2cc(Cl)cnc12 | > 100 | > 100 µM | > 100 µM | > 100 µM | > 100 | > 100 | > 100 | > 100 | > 100 | > 100 | > 100 | > 100 µM | > 100 µM | > 100 µM | 32.8 µM | – | – | – |
| NC(Cc1ccc(O)cn1)C(=O)NC(C(=O)O)c1ccccc1 (centres undefined) | > 100 | > 100 µM | > 100 µM | – | > 100 | > 100 | > 100 | > 100 | > 100 | > 100 | > 100 | > 100 µM | > 100 µM | > 100 µM | > 100 µM | – | – | – |
| CC(=O)Nc1ccc(NC(=O)CC(=O)Nc2ccc(NC(C)=O)cc2)cc1 | > 100 | > 100 µM | 61.9 µM | > 100 µM | > 100 | > 100 | > 100 | > 100 | > 100 | > 100 | > 100 | > 100 µM | > 100 µM | – | > 100 µM | – | – | – |
| C/C=C1\CC(C(=O)OCC)CCCCCCC1=O (centres undefined) | > 100 | > 100 µM | > 100 µM | > 100 µM | > 100 | > 100 | > 100 | > 100 | > 100 | – | > 100 | – | > 100 µM | > 100 µM | > 100 µM | – | – | – |
| Cc1sc2c(c1C)C(=O)c1cccn1-2 | > 100 | > 100 µM | > 100 µM | > 100 µM | > 100 | > 100 | > 100 | > 100 | – | > 100 | > 100 | > 100 µM | > 100 µM | > 100 µM | > 100 µM | – | – | – |
| COC(CNC(=O)CNC(=O)c1ccc(C(F)(F)F)cc1)OC | > 100 | > 100 µM | > 100 µM | > 100 µM | > 100 | > 100 | > 100 | > 100 | > 100 | > 100 | > 100 | – | – | > 100 µM | > 100 µM | – | – | – |
| CC(=O)N1C(C(=O)NN2CCOCC2)CSC1c1ccccc1 (centres undefined) | > 100 | > 100 µM | > 100 µM | > 100 µM | > 100 | > 100 | > 100 | > 100 | > 100 | > 100 | > 100 | > 100 µM | > 100 µM | – | > 100 µM | – | – | – |
| CCOC(=O)COc1cc(-c2ccccc2F)nc2cc3c(cc12)OCO3 | > 100 | > 100 µM | > 100 µM | > 100 µM | > 100 | > 100 | > 100 | 84.5 | > 100 | – | – | – | – | > 100 µM | > 100 µM | – | – | – |
| Cc1ccc(Nc2c3c(c(C#N)c4nc5ccccc5n24)CCCC3)cc1 | > 100 | > 100 µM | 82.4 µM | 74.4 µM | > 100 | 62.4 | > 100 | 40.6 | > 100 | > 100 | 82.4 | 34.6 µM | > 100 µM | – | 61 µM | – | – | – |
| N=c1c2sc3nc4ccccc4n3c2ncn1Cc1ccccc1 | > 100 | > 100 µM | > 100 µM | > 100 µM | > 100 | > 100 | > 100 | > 100 | > 100 | – | > 100 | > 100 µM | > 100 µM | > 100 µM | > 100 µM | – | – | – |
| COc1ccc(C=Nc2ccc(-c3nc4ccccc4s3)cc2)cc1OC | > 100 | > 100 µM | > 100 µM | > 100 µM | – | – | 99 | 84.4 | 90.6 | 67.6 | 47.4 | 51.9 µM | > 100 µM | 62.4 µM | > 100 µM | – | – | – |
| C/C=C/CC(C(=O)OCC)(N(C)C(=O)OC(C)(C)C)S(=O)(=O)c1ccc(C)cc1 (centres undefined) | > 100 | > 100 µM | > 100 µM | > 100 µM | > 100 | > 100 | 48 | > 100 | > 100 | – | > 100 | > 100 µM | > 100 µM | > 100 µM | > 100 µM | – | – | – |
| Cc1ccc(S(=O)(=O)N(CC(O)COc2ccccc2)c2c(F)c(F)cc(F)c2F)cc1 (centres undefined) | 48.7 | 92.3 µM | 52 µM | 61.5 µM | 32.7 | 50.8 | 35.7 | 2.25 | 43.2 | 35.3 | – | 54.1 µM | 52 µM | – | 85 µM | – | – | – |
| Cc1ccc(S(=O)(=O)NC(=O)Nc2c(S(N)(=O)=O)cc(S(N)(=O)=O)c(Cl)c2Cl)cc1 | > 100 | > 100 µM | > 100 µM | > 100 µM | > 100 | > 100 | > 100 | > 100 | > 100 | > 100 | > 100 | > 100 µM | > 100 µM | – | > 100 µM | – | – | – |
| Cc1ccsc1/C=N/NC1=NCCN1 | > 100 | > 100 µM | > 100 µM | > 100 µM | > 100 | > 100 | > 100 | > 100 | > 100 | – | – | > 100 µM | > 100 µM | > 100 µM | > 100 µM | – | – | – |
| O=C(N/N=C(/COc1ccccc1)N=Cc1ccncc1)c1ccncc1 | > 100 | > 100 µM | > 100 µM | > 100 µM | > 100 | > 100 | > 100 | > 100 | > 100 | > 100 | – | > 100 µM | > 100 µM | > 100 µM | > 100 µM | – | – | – |
| O=Cc1c2c(cc3c1CC1(C3)Cc3cc4c(c(C=O)c3C1)CCCC4)CCCC2 | – | > 31.6 µM | > 31.6 µM | > 31.6 µM | > 31.6 | > 31.6 | > 31.6 | 23.2 | > 31.6 | > 100 | 27.3 | > 31.6 µM | > 31.6 µM | > 31.6 µM | > 100 µM | – | – | – |
| CN(C)CCCNC(=O)N/N=C/c1ccc(O)cc1 | > 100 | – | > 100 µM | > 100 µM | > 100 | > 100 | > 100 | > 100 | > 100 | > 100 | > 100 | > 100 µM | – | – | > 100 µM | – | – | – |

Reference: PubChem BioAssay (NCI)
